Reference: patent publication US20250074867A1, “NOVEL CATIONIC LIPID COMPOUNDS” (Guangzhou Anobri Pharmaceutical Co. Ltd., priority 2021, published 2025)

Assays:
[1] = tested on: luciferase expression in the liver; test: In vivo luciferase mRNA expression in liver after tail vein injection of FLuc mRNA lipid nanoparticles; design: species or system mice; details: liver 5 hours after administration, FLuc mRNA LNP 50% cationic lipid/10% DSPC/40% cholesterol/1.5% PEG-DMG; for Liver Luc @ 0.3 mg/kg dose: 0.3 mg mRNA/kg; for Liver Luc @ 1.0 mg/kg dose: 1.0 mg mRNA/kg
Procedure: […] Lipid nanoparticles (LNPs) were prepared in a total lipid to mRNA weight ratio of about 10:1 to 30:1. mRNA was diluted to 0.15 mg/ml in 10 to 50 ml citrate buffer (pH=4). Using a syringe pump, an ethanolic solution of lipids was mixed with an aqueous mRNA solution in a ratio of approximately 1:5 to 1:3 (volume/volume) at a total flow rate of more than 15 ml/min. Then ethanol was removed and the external buffer replaced by dialysis with PBS. Finally, the lipid nanoparticles were filtered through a 0.2 um pore size sterile filter. The particle size of lipid nanoparticles as determined by quasi-elastic light scattering using Malvern Zetasizer Nano ZS was approximately 65-105 nm in diameter and, in some cases, approximately 75-100 nm in diameter.
The in vivo study was conducted on female mice aged 6-8 weeks and mice aged 8-10 weeks according to guidelines developed by the National Council for Science and Technology. Different doses of mRNA lipid nanoparticles were administered systemically via tail vein injection and the animals euthanized at specific time points (e.g., 5 hours) after dosing. The liver and spleen were collected in pre-weighed tubes, their weights determined, frozen immediately in liquid nitrogen, and stored at −80° C. until use for analysis.
For the liver, approximately 50 mg of liver tissue was cut for analysis and placed in 2 mL FastPrep tubes (MP Biomedicals, Solon OH). ¼″ ceramic beads (MP Biomedicals) and 500 μL of Glo Lysis Buffer-GLB (Promega, Madison WI) were added to each tube and the contents equilibrated to room temperature. The liver tissue was then homogenized for 15 seconds at 2×6.0 m/s using a FastPrep24 instrument (MP Biomedicals). The homogenates were incubated for 5 minutes at room temperature followed by a ¼ dilutions in GLB and evaluated using the SteadyGlo luciferase assay system (Promega). Specifically, 50 μL of diluted tissue homogenate was reacted with 50 μL of SteadyGlo substrate, shaken for 10 seconds, followed by incubation for 5 minutes and quantified using a CentroXS3LB 960 photometer (Berthold Technologies, Germany). The amount of protein was determined using a BCA Protein Assay Kit (Pierce, Rockford IL). Relative luminescence units (RLU) were then normalized to the total ug of the measured protein. To convert RLU into ng luciferase, a standard curve was generated with QuantiLum recombinant luciferase (Promega).
FLuc mRNA (L-6107) from Trilink Biotechnologies will express luciferase protein, and was originally isolated from fireflies (Photinus pyralis). Fluc is commonly used in mammalian cell cultures to measure gene expression and cell viability. It emits biologic light in the presence of the substrate luciferin. This capped and polyadenylated mRNA was completely replaced by 5-methylcytidine and pseudouridine. […]

[2] = Determination of the pKa of cationic lipids in lipid nanoparticles by TNS fluorescence analysis
Procedure: The pKa of each cationic lipid was determined in lipid nanoparticles using fluorescence analysis based on 2-(p-toluidine)-6-naphthalenesulfonic acid (TNS). As described in Example 3, lipid nanoparticles containing cationic lipids/DSPC/cholesterol/PEG lipids (50/10/40/1.5 mol %) at a concentration of 0.4 mM total lipid in PBS were prepared using an ordered method. 100 μM stock solution was prepared with TNS in distilled water. The vesicles were diluted to contain 24 μM lipid in 2 mL of a buffer solution containing 10 mM HEPES, 10 mM MES, 10 mM acetic acid, 130 mM NaCl, and having a pH of 2.5 to 11. The equal TNS solution was added to produce a final concentration of 1 uM, and after vortex mixing, fluorescence intensity was measured in a SLM Aminco Series 2 luminescence spectrophotometer at room temperature using excitation and emission wavelengths of 321 nm and 445 nm. Fluorescence data were analyzed using a sigmoidal best fit and pKa was measured as the pH producing half-maximal fluorescence intensity.

Row | Compound | Liver Luc @ 0.3 mg/kg dose [1] | Liver Luc @ 1.0 mg/kg dose [1] | pKa [2]
1 | CCCCCCCCCCCOC(=O)CCCCCN(CCO)CCCCCCCC(=O)OCC(CCCCCCCC)CCCCCCCC [Compound A, 2-octyldecyl 8-((2-hydroxyethyl) (6-oxo-6-(undecyloxy)hexyl)amino)octanoate] | 156 ± 50 ng luciferase/g liver | 550 ± 200 ng luciferase/g liver | 6.01
2 | 2-heptylnonyl 8-((2-hydroxyethyl) (6-oxo-6-(undecyloxy)hexyl)amino)octanoate [Compound B] | 134 ± 40 ng luciferase/g liver | 522 ± 210 ng luciferase/g liver | 
